± gives the expanded uncertainty stated by the source.
Settings: 298.15 K; 101.33 kPa; Liquid; Vibrating tube method

SMILES: CCCCCC[N+](C)(C)CCO.F[B-](F)(F)F [hexyl(2-hydroxyethyl)dimethylammonium tetrafluoroborate]
- mass density: 1123.6 ± 6.9 kg/m3
